In ChEMBL document CHEMBL5104101, “Insights into the modular design of kinase inhibitors and application to Abl and Axl” (RSC Med Chem, 2022):
The source made the active and inactive calls. No cut-off for these calls is given here.

Key:
[1] = target: RAF proto-oncogene serine/threonine-protein kinase (Homo sapiens) (UniProt P04049); assay: Inhibition of CRAF (unknown origin) by Nano-syn mobility shift assay
[2] = target: Vascular endothelial growth factor receptor 2 (Homo sapiens) (UniProt P35968); assay: Inhibition of KDR (unknown origin) by Nano-syn mobility shift assay
[3] = target: Tyrosine-protein kinase ABL1 (Homo sapiens, UniProt P00519); assay: Inhibition of NanoLuc-tagged ABL1 wild type (unknown origin) expressed in HEK293 cells by NanoBRET TE assay; assay type: cell-based
Sequence of Tyrosine-protein kinase ABL1 (P00519 whole entry): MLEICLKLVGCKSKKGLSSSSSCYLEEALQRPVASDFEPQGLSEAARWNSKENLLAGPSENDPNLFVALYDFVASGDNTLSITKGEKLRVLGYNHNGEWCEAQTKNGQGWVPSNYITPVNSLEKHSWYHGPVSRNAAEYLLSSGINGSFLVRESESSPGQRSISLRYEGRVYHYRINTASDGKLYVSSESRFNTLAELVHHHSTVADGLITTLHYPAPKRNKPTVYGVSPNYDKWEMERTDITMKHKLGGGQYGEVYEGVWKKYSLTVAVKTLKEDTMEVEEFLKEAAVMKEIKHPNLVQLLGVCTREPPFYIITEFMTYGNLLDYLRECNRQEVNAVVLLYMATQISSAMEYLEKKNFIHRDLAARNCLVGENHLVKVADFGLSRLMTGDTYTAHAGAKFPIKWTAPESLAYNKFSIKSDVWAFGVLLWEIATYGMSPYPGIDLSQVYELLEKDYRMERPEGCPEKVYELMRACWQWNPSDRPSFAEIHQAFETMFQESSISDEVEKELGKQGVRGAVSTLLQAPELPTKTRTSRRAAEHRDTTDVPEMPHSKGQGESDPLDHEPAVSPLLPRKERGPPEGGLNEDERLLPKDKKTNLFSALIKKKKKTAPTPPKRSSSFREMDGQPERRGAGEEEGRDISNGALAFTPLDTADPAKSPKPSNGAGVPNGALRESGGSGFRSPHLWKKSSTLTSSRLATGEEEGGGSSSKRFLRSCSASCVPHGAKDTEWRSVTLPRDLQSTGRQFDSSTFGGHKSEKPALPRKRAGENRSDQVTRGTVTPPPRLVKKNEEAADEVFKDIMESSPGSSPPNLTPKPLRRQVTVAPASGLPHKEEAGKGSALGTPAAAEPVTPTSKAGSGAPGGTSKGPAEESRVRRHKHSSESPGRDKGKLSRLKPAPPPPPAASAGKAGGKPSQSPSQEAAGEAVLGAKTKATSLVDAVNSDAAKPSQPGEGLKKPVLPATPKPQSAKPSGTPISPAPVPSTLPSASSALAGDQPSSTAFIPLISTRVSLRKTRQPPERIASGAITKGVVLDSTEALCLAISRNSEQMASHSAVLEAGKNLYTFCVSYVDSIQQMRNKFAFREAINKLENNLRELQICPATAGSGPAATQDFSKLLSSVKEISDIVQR

[4] = system: BaF3; assay: Cytotoxicity against mouse BaF3 cells stably expressing ABL wildtype assessed as cell growth inhibition incubated for 72 hrs by celltiter-glo luminescent cell viability assay; assay type: functional
[5] = system: BaF3; assay: Cytotoxicity against mouse BaF3 cells stably expressing ABL-T315I mutant assessed as cell growth inhibition incubated for 72 hrs by celltiter-glo luminescent cell viability assay; assay type: functional
[6] = system: K562; assay: Cytotoxicity against human K562 cells assessed as cell growth inhibition incubated for 72 hrs by celltiter-glo luminescent cell viability assay; assay type: functional
[7] = target: MAP kinase-interacting serine/threonine-protein kinase 2 (Homo sapiens) (UniProt Q9HBH9); assay: Inhibition of MKNK2 (unknown origin) by Nano-syn mobility shift assay
Sequence of MAP kinase-interacting serine/threonine-protein kinase 2 (Homo sapiens) (Q9HBH9 whole entry, looked up): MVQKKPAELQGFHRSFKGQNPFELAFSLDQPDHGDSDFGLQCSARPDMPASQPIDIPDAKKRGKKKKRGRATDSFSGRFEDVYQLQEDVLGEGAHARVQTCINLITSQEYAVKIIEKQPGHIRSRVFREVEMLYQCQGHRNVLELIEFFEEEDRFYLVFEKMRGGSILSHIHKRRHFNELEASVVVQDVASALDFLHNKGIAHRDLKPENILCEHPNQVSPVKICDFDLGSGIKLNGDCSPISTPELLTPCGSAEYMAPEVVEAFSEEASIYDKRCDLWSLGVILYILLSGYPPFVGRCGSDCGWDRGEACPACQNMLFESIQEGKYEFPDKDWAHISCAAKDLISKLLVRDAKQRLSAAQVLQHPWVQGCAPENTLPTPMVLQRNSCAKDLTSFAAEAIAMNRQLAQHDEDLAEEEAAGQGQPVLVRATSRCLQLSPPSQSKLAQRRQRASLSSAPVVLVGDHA

[8] = target: MAP kinase-interacting serine/threonine-protein kinase 1 (Homo sapiens) (UniProt Q9BUB5); assay: Inhibition of MKNK1 (unknown origin) by Nano-syn mobility shift assay
Sequence of MAP kinase-interacting serine/threonine-protein kinase 1 (Homo sapiens) (Q9BUB5 whole entry, looked up): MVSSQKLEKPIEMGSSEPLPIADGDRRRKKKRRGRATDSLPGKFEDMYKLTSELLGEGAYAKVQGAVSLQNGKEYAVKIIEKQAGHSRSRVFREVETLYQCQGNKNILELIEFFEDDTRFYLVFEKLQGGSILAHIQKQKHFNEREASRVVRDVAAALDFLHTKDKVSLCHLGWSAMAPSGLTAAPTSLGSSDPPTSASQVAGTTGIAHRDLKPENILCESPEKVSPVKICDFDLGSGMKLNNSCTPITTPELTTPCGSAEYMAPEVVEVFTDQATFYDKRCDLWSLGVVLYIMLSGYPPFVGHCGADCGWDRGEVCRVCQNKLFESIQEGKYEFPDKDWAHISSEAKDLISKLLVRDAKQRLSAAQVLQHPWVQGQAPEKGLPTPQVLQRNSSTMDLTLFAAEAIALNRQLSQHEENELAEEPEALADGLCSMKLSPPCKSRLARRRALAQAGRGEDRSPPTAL

[9] = target: Mitogen-activated protein kinase 11 (Homo sapiens) (UniProt Q15759); assay: Inhibition of MAPK11 (unknown origin) by Nano-syn mobility shift assay
Sequence of Mitogen-activated protein kinase 11 (Homo sapiens) (Q15759 whole entry): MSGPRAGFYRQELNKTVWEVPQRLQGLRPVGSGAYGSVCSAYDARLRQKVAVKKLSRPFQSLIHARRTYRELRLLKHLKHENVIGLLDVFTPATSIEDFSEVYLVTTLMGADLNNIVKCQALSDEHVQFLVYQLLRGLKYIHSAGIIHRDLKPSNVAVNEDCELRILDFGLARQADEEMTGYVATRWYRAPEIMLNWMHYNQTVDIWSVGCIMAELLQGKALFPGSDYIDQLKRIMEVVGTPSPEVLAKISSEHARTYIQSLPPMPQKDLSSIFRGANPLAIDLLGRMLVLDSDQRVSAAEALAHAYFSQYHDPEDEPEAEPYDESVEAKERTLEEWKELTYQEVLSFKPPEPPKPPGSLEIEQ

[10] = target: Mitogen-activated protein kinase 14 (Homo sapiens) (UniProt Q16539); assay: Inhibition of MAPK14 (unknown origin) by Nano-syn mobility shift assay
Sequence of Mitogen-activated protein kinase 14 (Homo sapiens) (Q16539 whole entry): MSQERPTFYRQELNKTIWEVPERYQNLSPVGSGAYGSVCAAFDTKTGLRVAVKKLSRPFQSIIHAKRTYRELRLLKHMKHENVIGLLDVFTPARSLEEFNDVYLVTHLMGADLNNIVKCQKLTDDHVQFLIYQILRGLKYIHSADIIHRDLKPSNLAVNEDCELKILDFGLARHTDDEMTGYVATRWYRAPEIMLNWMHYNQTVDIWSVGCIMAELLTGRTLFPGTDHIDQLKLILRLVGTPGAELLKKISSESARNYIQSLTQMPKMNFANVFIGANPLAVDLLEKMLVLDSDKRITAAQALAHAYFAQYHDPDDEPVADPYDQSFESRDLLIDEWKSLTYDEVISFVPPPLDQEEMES

[11] = target: Ephrin type-A receptor 2 (Homo sapiens) (UniProt P29317); assay: Inhibition of EPH-A2 (unknown origin) by Nano-syn mobility shift assay
[12] = target: Fibroblast growth factor receptor 1 (Homo sapiens) (UniProt P11362); assay: Inhibition of FGFR1 (unknown origin) by Nano-syn mobility shift assay
[13] = target: Tyrosine-protein kinase Fgr (Homo sapiens) (UniProt P09769); assay: Inhibition of FGR (unknown origin) by Nano-syn mobility shift assay
[14] = target: Platelet-derived growth factor receptor alpha (Homo sapiens) (UniProt P16234); assay: Inhibition of PDFGRA (unknown origin) by Nano-syn mobility shift assay; settings: concentration not given here
[15] = target: Receptor-type tyrosine-protein kinase FLT3 (Homo sapiens) (UniProt P36888); assay: Inhibition of FLT3 (unknown origin) by Nano-syn mobility shift assay; settings: concentration not given here
Sequence of Receptor-type tyrosine-protein kinase FLT3 (Homo sapiens) (P36888 whole entry): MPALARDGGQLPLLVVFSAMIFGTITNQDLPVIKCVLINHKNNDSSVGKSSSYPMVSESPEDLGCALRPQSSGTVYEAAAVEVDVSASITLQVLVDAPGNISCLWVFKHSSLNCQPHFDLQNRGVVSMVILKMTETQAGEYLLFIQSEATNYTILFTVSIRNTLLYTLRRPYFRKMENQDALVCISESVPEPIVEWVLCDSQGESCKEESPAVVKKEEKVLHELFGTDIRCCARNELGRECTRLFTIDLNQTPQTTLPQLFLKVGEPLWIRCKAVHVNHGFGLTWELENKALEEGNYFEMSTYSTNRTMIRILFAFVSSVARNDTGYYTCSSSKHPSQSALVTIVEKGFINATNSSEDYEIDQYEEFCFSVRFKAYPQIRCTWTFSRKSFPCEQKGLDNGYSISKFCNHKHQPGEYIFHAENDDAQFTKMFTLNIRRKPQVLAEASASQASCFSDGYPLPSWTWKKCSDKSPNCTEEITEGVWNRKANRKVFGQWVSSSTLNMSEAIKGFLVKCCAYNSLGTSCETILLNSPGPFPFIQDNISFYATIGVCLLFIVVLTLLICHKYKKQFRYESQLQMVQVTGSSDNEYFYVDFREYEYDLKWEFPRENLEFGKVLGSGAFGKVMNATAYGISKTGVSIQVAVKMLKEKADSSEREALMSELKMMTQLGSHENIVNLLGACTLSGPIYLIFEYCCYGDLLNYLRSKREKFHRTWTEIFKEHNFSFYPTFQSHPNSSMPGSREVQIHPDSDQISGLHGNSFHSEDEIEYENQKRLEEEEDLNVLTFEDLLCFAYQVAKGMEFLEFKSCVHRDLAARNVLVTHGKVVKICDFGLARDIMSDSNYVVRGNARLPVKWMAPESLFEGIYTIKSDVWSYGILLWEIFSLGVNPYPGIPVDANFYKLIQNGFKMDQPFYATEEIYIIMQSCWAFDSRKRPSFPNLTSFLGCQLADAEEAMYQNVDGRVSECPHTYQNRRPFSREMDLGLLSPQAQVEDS

[16] = target: High affinity nerve growth factor receptor (Homo sapiens) (UniProt P04629); assay: Inhibition of NTRK1 (unknown origin) by Nano-syn mobility shift assay; settings: concentration not given here
[17] = target: Tyrosine-protein kinase Lck (Homo sapiens) (UniProt P06239); assay: Inhibition of LCK (unknown origin) by Nano-syn mobility shift assay; settings: concentration not given here
Sequence of Tyrosine-protein kinase Lck (Homo sapiens) (P06239 2-509 limits assumed): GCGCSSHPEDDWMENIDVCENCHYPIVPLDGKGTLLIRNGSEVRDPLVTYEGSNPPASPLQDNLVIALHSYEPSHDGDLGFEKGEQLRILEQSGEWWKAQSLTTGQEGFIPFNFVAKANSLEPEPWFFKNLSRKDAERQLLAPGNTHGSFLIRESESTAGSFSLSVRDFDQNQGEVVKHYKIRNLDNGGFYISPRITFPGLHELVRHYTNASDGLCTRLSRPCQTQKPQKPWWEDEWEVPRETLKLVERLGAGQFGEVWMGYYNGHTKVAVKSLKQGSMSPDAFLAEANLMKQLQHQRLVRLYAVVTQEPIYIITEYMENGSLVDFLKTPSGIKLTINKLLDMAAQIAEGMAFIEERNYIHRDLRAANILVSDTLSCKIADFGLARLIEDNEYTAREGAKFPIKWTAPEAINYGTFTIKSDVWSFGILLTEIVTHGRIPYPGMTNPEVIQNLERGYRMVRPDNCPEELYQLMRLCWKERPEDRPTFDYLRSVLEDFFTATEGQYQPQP

[18] = species on record: Homo sapiens; assay: Inhibition of LYNB (unknown origin) by Nano-syn mobility shift assay; settings: concentration not given here
[19] = target: Tyrosine-protein kinase ABL2 (Homo sapiens) (UniProt P42684); assay: Inhibition of ABL2 (unknown origin) by Nano-syn mobility shift assay; settings: concentration not given here
[20] = target: Angiopoietin-1 receptor (Homo sapiens) (UniProt Q02763); assay: Inhibition of TEK (unknown origin) by Nano-syn mobility shift assay; settings: concentration not given here
[21] = species on record: Homo sapiens; assay: Inhibition of LYNA (unknown origin) by Nano-syn mobility shift assay; settings: concentration not given here
[22] = target: Fibroblast growth factor receptor 3 (Homo sapiens) (UniProt P22607); assay: Inhibition of FGFR3 (unknown origin) by Nano-syn mobility shift assay
[23] = target: Tyrosine-protein kinase receptor UFO (Homo sapiens) (UniProt P30530); assay: Inhibition of AXL (unknown origin) by Nano-syn mobility shift assay
[24] = target: Tyrosine-protein kinase receptor UFO (Homo sapiens, UniProt P30530); assay: Inhibition of AXL (unknown origin) using peptide substrate in presence of ATP by radiometric HotSpot assay
[25] = target: Platelet-derived growth factor receptor beta (Homo sapiens) (UniProt P09619); assay: Inhibition of PDFGRB (unknown origin) by Nano-syn mobility shift assay
[26] = target: Muscle, skeletal receptor tyrosine-protein kinase (Homo sapiens) (UniProt O15146); assay: Inhibition of MUSK (unknown origin) by Nano-syn mobility shift assay
[27] = target: Vascular endothelial growth factor receptor 3 (Homo sapiens) (UniProt P35916); assay: Inhibition of FLT4 (unknown origin) by Nano-syn mobility shift assay
[28] = target: Vascular endothelial growth factor receptor 1 (Homo sapiens) (UniProt P17948); assay: Inhibition of FLT1 (unknown origin) by Nano-syn mobility shift assay
[29] = target: Ephrin type-A receptor 8 (Homo sapiens) (UniProt P29322); assay: Inhibition of EPH-A8 (unknown origin) by Nano-syn mobility shift assay
[30] = target: Discoidin domain-containing receptor 2 (Homo sapiens) (UniProt Q16832); assay: Inhibition of DDR2 (unknown origin) by Nano-syn mobility shift assay
[31] = target: Proto-oncogene tyrosine-protein kinase receptor Ret (Homo sapiens) (UniProt P07949); assay: Inhibition of RET (unknown origin) by Nano-syn mobility shift assay

Sequence of RAF proto-oncogene serine/threonine-protein kinase (Homo sapiens) (P04049 whole entry): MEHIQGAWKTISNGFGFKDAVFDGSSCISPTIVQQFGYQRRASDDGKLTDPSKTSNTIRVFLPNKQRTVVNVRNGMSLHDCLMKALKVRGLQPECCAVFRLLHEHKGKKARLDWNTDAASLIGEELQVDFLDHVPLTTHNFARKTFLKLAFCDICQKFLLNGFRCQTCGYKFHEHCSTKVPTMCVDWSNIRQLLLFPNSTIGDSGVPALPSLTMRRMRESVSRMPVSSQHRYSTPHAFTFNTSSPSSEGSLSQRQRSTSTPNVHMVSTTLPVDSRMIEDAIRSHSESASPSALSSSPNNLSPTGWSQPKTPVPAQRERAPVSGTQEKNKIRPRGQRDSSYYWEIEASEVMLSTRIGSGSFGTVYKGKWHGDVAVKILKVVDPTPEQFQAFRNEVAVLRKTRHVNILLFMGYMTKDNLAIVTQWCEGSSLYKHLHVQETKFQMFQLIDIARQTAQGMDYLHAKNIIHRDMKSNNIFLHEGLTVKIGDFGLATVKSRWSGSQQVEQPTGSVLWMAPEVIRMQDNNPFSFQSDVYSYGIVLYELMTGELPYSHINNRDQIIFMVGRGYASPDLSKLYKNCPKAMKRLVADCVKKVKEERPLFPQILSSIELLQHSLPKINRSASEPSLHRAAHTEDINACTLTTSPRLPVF

Compound	inhibition [1]	inhibition [2]	IC50 [3] [nM]	GI50 [4] [nM]	GI50 [5] [nM]	GI50 [6] [nM]	inhibition [7]	inhibition [8]	inhibition [9]	inhibition [10]	inhibition [11]	inhibition [12]	inhibition [14] [%]	inhibition [15] [%]	inhibition [16] [%]	inhibition [17] [%]	inhibition [18] [%]	inhibition [19] [%]	inhibition [20] [%]	inhibition [21] [%]	other results
CC(C)(C)c1cc(NC(=O)Nc2ccc(Oc3ccc4cccnc4c3)cc2)n(-c2ccc3ncccc3c2)n1	Active	Active	719	> 5000	> 10000	239															
CN1CCN(Cc2ccc(NC(=O)Nc3ccc(Oc4ccc5cccnc5c4)cc3)cc2C(F)(F)F)CC1	Active	Active	637	> 10000	> 10000	451	Active	Active	Active	Active											
CN1CCN(Cc2ccc(NC(=O)Nc3ccc(Oc4ccc5ncncc5c4)cc3)cc2C(F)(F)F)CC1			15.7	83	117	2.3	Active	Active	Active	Active	Active	Active	> 50	> 50	> 50	> 50	> 50	> 50	> 50	> 50	inhibition [13]: Active
CC(C)(C)c1cc(NC(=O)Nc2ccc(Oc3ccc4ncccc4c3)cc2)n(-c2ccc3ncccc3c2)n1	Active	Active	345	164	801	13							> 50	> 50	> 50	> 50	> 50	> 50	> 50	> 50	inhibition [22]: Active; inhibition [23]: Active; IC50 [24]: 12 nM
CN1CCN(Cc2ccc(NC(=O)Nc3ccc(Oc4ccc5ncccc5c4)cc3)cc2C(F)(F)F)CC1	Active	Active	38.3	36	162	6.9	Active	Active	Active	Active			> 50	> 50	> 50	> 50	> 50	> 50	> 50	> 50	inhibition [25]: Active; inhibition [26]: Active; inhibition [27]: Active; inhibition [28]: Active; inhibition [29]: Active; inhibition [30]: Active; inhibition [31]: Active
CC(C)(C)c1cc(NC(=O)Nc2ccc(Oc3ccc4ncncc4c3)cc2)n(-c2ccc3ncccc3c2)n1				66	269	4					Active	Active	> 50	> 50	> 50	> 50		> 50	> 50		inhibition [13]: Active; inhibition [22]: Active; inhibition [23]: Active
